Measurements from patent publication US8389011B2, “Pharmaceutical compositions of cholesteryl ester transfer protein inhibitors” (Bend Research, Inc., priority 2000, dated 2013).

Test: In vitro dissolution test, microcentrifuge method, in phosphate buffered saline (PBS) pH 6.5
Format: physicochemical
Conditions: for AUC / Drug 2 Concentration: Table 5, PBS pH 6.5, 37° C.; for AUC: dose about 1000 μg/mL; for Drug 2 Concentration: Drug 2 dose about 1000 μg/mL
Description: The compositions comprising the CETP inhibitor and concentration-enhancing polymer provide enhanced concentration of the dissolved CETP inhibitor in in vitro dissolution tests. […] An appropriate PBS solution is an aqueous solution comprising 20 mM sodium phosphate (Na2HPO4), 47 mM potassium phosphate (KH2PO4), 87 mM NaCl, and 0.2 mM KCl, adjusted to pH 6.5 with NaOH. An appropriate MFD solution is the same PBS solution wherein additionally is present 7.3 mM sodium taurocholic acid and 1.4 mM of 1-palmitoyl-2-oleyl-sn-glycero-3-phosphocholine. In particular, a composition of the present invention can be dissolution-tested by adding it to MFD or PBS solution and agitating to promote dissolution.
Indeed, for some extremely insoluble CETP inhibitors, in order to identify the MDC achieved it may be necessary to use an amount of test composition such that if all of the CETP inhibitor dissolved, the CETP inhibitor concentration would be 10,000-fold or even more, that of the equilibrium concentration of the CETP inhibitor.
The MDC is taken to be the maximum value of dissolved CETP inhibitor measured over the duration of the test.
Filtration can be conducted using a 13 mm, 0.45 μm polyvinylidine difluoride syringe filter sold by Scientific Resources under the trademark TITAN®. Centrifugation is typically carried out in a polypropylene microcentrifuge tube by centrifuging at 13,000 G for 60 seconds. Other similar filtration or centrifugation methods can be employed and useful results obtained.
The spray-dried dispersions of Examples 6 and 7 were evaluated in an in vitro dissolution test using a microcentrifuge method. In this test, the spray-dried dispersion was added to a microcentrifuge tube for a Drug 2 dose of about 1000 μg/mL (7.2 mg for Example 6, 18 mg for Example 7). The tube was placed in a 37° C. sonicating bath, and 1.8 mL phosphate buffered saline (PBS) at pH 6.5 and 290 mOsm/kg was added. The samples were quickly mixed using a vortex mixer for about 60 seconds. The samples were centrifuged at 13,000 G at 37° C. for 1 minute. The resulting supernatant solution was then sampled and diluted 1:6 (by volume) with methanol and then analyzed by high-performance liquid chromatography (HPLC). The contents of the tubes were mixed on the vortex mixer and allowed to stand undisturbed at 37° C. until the next sample was taken. Samples were collected at 4, 10, 20, 40, 90, and 1200 minutes.
For Control 2, an in vitro dissolution test was performed using the procedures described above except that 1.8 mg of crystalline Drug 2 was used.
In this method, 7.2 mg of each spray-dried dispersion was added to a 2-mL microcentrifuge tube. The tube was placed in a 37° C. sonicating bath, and 1.8 mL of a phosphate-buffered saline (PBS) solution at pH 6.5 and 290 mOsm/kg was added, resulting in a TCmax of 400 μg/mL. The samples were quickly mixed using a combination of vortex mixer and sonication for about 90 seconds. The samples were centrifuged at 13,000 G at 37° C. for 1 minute. The resulting supernatant solution was then sampled and diluted 1:6 (by volume) with methanol and then analyzed by HPLC. The tubes were then mixed on the vortex mixer and allowed to stand undisturbed at 37° C. until the next sample. Samples were collected at 4, 10, 20, 40, 90 and 1200 minutes.
For Control 5, an in vitro dissolution test was performed using the procedure described above, except that 0.72 mg of non-crystalline Drug 3 was placed in a microcentrifuge tube and mixed with 1.8 mL of PBS.
In this method, 15 mg of each SDD was added to a 2-mL microcentrifuge tube. The tube was placed in a 37° C. sonicating bath, and 1.5 mL of a phosphate-buffered saline (PBS) solution at pH 6.5 and 290 mOsm/kg) was added, resulting in a TCmax of 1000 μg/mL. The samples were quickly mixed using a combination of vortex mixer and sonication for about 90 seconds.

[1] = Table 25: Drug 2, PBS, melt-congeal poloxamer dispersions
[2] = Table 28: Drug 2, PBS, spray-dried poloxamer dispersions
[3] = Table 37: Drug 2, PBS, CMEC dispersions

actual Cmax,90 for Drug 2 in Control 2 (believed) (PBS, inferred from the accurately measured solubility of crystalline Drug 2): about 0.01 μg/ml | AUC (Drug 2, to 0 min): 0 min-μg/mL | AUC (Drug 2, to 4 min): <2 min-μg/mL | AUC (Drug 2, to 10 min): <8 min-μg/mL | AUC (Drug 2, to 20 min): <18 min-μg/mL | AUC (Drug 2, to 40 min): <38 min-μg/mL | AUC (Drug 2, to 90 min): <88 min-μg/mL | AUC (Drug 2, to 1200 min): <1,200 min-μg/mL | Drug 2 Concentration (0 min): 0 µg/mL | Drug 2 Concentration (4 min): <1 µg/mL | Drug 2 Concentration (10 min): <1 µg/mL | Drug 2 Concentration (20 min): <1 µg/mL | Drug 2 Concentration (40 min): <1 µg/mL | Drug 2 Concentration (90 min): <1 µg/mL | Drug 2 Concentration (1200 min): <1 µg/mL | AUC90 (Table 6, area under the aqueous concentration versus time curve after 90 minutes, Drug 2, PBS, TCmax about 1000 μg/mL): <88 min-μg/mL | C1200 (Table 6, concentration of Drug 2 at 1200 minutes, PBS, TCmax about 1000 μg/mL): <1 µg/mL | Cmax, 90 (Table 6, maximum concentration of Drug 2 in solution during the first 90 minutes, PBS, TCmax about 1000 μg/mL): <1000 ng/mL | AUC90 [1]: < 1470 ng·h/mL | Cmax, 90 [1]: <1000 ng/mL | AUC90 [2]: <88 min-μg/mL | Cmax, 90 [2]: <1000 ng/mL | AUC90 [3]: <88 min-μg/mL | Cmax, 90 [3]: <1000 ng/mL | AUC90 (Table 41: Drug 2, PBS): <88 min-μg/mL | Cmax, 90 (Table 41: Drug 2, PBS): <1000 ng/mL | AUC90 (Table 44: Drug 2, PBS): <88 min-μg/mL | Cmax, 90 (Table 44: Drug 2, PBS): <1000 ng/mL
Structure (SMILES): CCOC(=O)N1c2ccc(C(F)(F)F)cc2[C@@H](N(Cc2cc(C(F)(F)F)cc(C(F)(F)F)c2)C(=O)OC)C[C@H]1CC [Control 2, [2R,4S]4-[(3,5-bis-trifluoromethyl-benzyl)-methoxycarbonyl-amino]-2-ethyl-6-trifluoromethyl-3,4-dihydro-2H-quinoline-1-carboxylic acid ethyl ester]
